Assay: Solubility measurement of acid chlorides containing one carboxylic acid moiety in hydrocarbon solvents with and without trialkylphosphate additives (saturated solutions, proton NMR)
Type: physicochemical
Settings: saturated solution
Source text: Many embodiments of the invention have been described and in some instances certain embodiments, selections, ranges, constituents, or other features have been characterized as being “preferred.” Characterizations of “preferred” features should in no way be interpreted as deeming such features as being required, essential or critical to the invention. For purposes of this description, the terms “acyl halide” and “acid halide” have the same meaning. While much of the description has focused upon acyl chlorides, non-chloride halides are also included. The term “solubility limit” refers to the point at which no additional amount of a constituent, (e.g. water, reaction product, hydrocarbon reactant) is miscible or dissolvable with the hydrocarbon solvent or solution, as measured at 20° C. and 101 kPa. Unless otherwise stated, all solubility related parameters are determined at 20° C. and 101 kPa.
Solubility measurement of acid chlorides containing one carboxylic acid moiety in hydrocarbon solvents with and without solubility enhancing additives:
Saturated solutions of sample acid chlorides containing carboxylic acid moieties were prepared in hydrocarbon solvents with and without the presence of trialkylphosphate additives by adding more sample than will dissolve in the solvent and decanting the saturated solvent from the undissolved precipitate. The saturated solutions were evaluated by proton NMR. Deuterated Isopar L is not commercially available, thus all spectra were acquired in the unlocked condition using regular Isopar L. Because of the very high proton concentration in running a non-deuterated solvent, 60° pulse and minimum receiver gain were used to avoid receiver overflow. A relaxation delay of 8 seconds was used for complete signal recovery between scans. The spectral width was set to 20 ppm and the center of the spectrum was set to 5 ppm. Depending on the concentrations of the species of interest, 64-256 scans were used for signal averaging.
The area of the Isopar L peaks between 0.75 and 2.0 ppm were measure and divided by 26 (which represents the average H's present in Isopar L, assuming a molecular formula of C12H26) and multiplied by 170.33, the formula weight of C12H26. The peak area of the aromatic acid chlorides containing carboxylates are between 8.9-9.2 ppm and are well resolved from the Isopar solvent. The integration of one of the assigned peaks (for example, the triplet of mono-hydrolyzed TMC at 9.0 ppm represents a single proton) was used to determine the relative weight of the sample in the Isopar L solvent. The integration is divided by the number of protons it represents and multiplied by the formula weight of the compound it represents (for example, the triplet of mono-hydrolyzed TMC at 9.0 ppm would be divided by 1 and multiplied by 247.03 g/mol). The wt % of mono-hydrolyzed TMC in the saturated solution is determined by dividing the value obtained for mono-hydrolyzed TMC by the value obtained for Isopar L.
In the presence of tributylphosphate (TBP), the Isopar L value must be corrected since a few protons of TBP cannot be resolved from the Isopar L peaks. This is done by integrating the —OCH2-protons of TBP which are well resolved at ˜4.05 ppm, dividing this value by 6 (for 6 protons). This area value is then multiplied by 21 (represents the three —CH2CH2CH3 that are unresolved from the Isopar L peak) and subtracted from the peak area of Isopar L.

[1] = solvent Isopar L, 20° C. and 101 kPa

Row | Solubility (solvent Isopar L + 0.47 wt % TBP) [wt %] | Solubility [1] [wt %] | Solubility (solvent 80/20 Isopar L/Toluene + 0.25 wt % TBP) [wt %] | Solubility (solvent 80/20 Isopar L/Toluene) [wt %] | Solubility (solvent Isopar L + 1 wt % TEHP) [wt %] | Solubility (solvent Isopar L + 1 wt % TEP) [wt %] | Structure (SMILES)
1 | 0.29 | <0.02 |  |  |  |  | O=C(O)c1cccc(C(=O)Cl)c1 [mhIPC]
2 |  | 0.02 | 0.29 | 0.05 | 0.11 | 0.2 | O=C(O)c1cc(C(=O)Cl)cc(C(=O)Cl)c1 [mhTMC, mono-hydrolyzed trimesoyl chloride]

— patent US9051417B2, “Method for solubilizing carboxylic acid-containing compound in hydrocarbon solvent” (Dow Global Technologies LLC, priority 2013, dated 2015)
